Entries after “also recorded” stand apart in the source; their conditions may differ. Where two headings read alike, the source gives them in different places.
How the values were obtained:
[1] = system: cardiolipin
Text: The antiphospholipid antibody syndrom (APS) is a thrombophilic condition, characterized by a panel of antibodies that recognize anionic phospholipid-protein cofactor complexes. The antiphospholipid antibodies lupus anticoagulant and anticardiolipin, (present in high concentrations in SLE patients), are associated with several medical disorders including artherial and venous thrombosis, and recurrent pregnancy loss (Rand J H et al., 1998, Blood. 92, 1652–1660). […] Noncellular negatively charged phospholipid coated surface (cardiolipin) were chosen as a target for binding.
CL, (Diphosphatidylglycerol, c-1649, Sigma), prepared at 50 μg/ml in ethanol, was added to a 96 well plate (100 μl/well) using Immunolon 4 plates (Dynatech, Chantilly, Va.) and incubated for 16–20 hr for evaporation of ethanol. As control, wells were coated with ethanol only. The coated plates were washed 3 times with 100 μl of blocking buffer (PBS containing 0.3% gelatin (Sigma) and 1 mM EDTA) to block non specific binding. A 5 min incubation time was used between each wash. Normal plasma (Ilex, Italy, 84670-11) and plasma derived from SLE patients (either from Gradipore, Australia, LAHP-1, or from Biopool, Ventura, Calif.) were prepared according to the producer's instruction. The plasma was diluted 1/10 in the blocking buffer and was added to the CL and ethanol coated wells. […] Following 3 hr incubation, the plates were washed twice with PBS/BSA buffer (0.4% bovine serum albumine (BSA) in PBS). For detection of anti cardiolipin binding property of the tested plasma, the plates were incubated with a 1/10000 dilution of Peroxidase-conjugated affinity purified Goat anti-human IgG (Jackson Immunoresearch lab.) in PBS/BSA buffer for 1 hour. The plates were then washed 3 times with PBS/BSA buffer, and color reaction was developed by incubation with 100 ul of 0-phenylenedi-amine (OPD) dihydrochloride (Sigma p-7288) at a concentration of 0.4 mg/ml in 0.05 M phosphate citrate buffer, pH 5.0 supplemented with 4 ul of 30% hydrogen peroxide (Aldrich) for 10 ml mixture. To detect the level of NST500 compounds that were bound to CL, parallel wells were incubated with streptavidin conugated to OPD (SA-OPD, Jackson Immunoresearch lab.), that specifically recognize the biotinylated NST 500 compounds. The resulting colour changes were recorded at 405 nm using a Bio Tek Elx800 Eliza reader.

[2] = system: apoptotic HeLa cells; test: Modified APTT test with apoptotic HeLa cells as pro-coagulant surface; format: cell-based
Experimental: Apoptotic and control HeLa cells were prepared as described for the FACS analysis. Equal numbers of apoptotic or control non-treated cells (5×10^4) in a volume of […], were mixed with 100 μl of normal plasma, incubated for 1 min at 37° C. in a bath and then calcified by addition of 100 μl of 25 mM CaCl2, and clotting time was measured. Inhibition of the pro-coagulant activity of the apoptotic cells by NST500 compounds was tested following pre-incubation of apoptotic cells for 20 min. at room temperature with increased concentrations of the different NST 500 compounds.
The results can be seen in FIG. 4B.

[3] = system: HUVEC cells; test: Cell-ELISA: binding of anti β2GPI antibodies to HUVEC cells; format: cell-based, Human
Experimental: Human β2GPI is a plasma phospholipid binding protein that is required for the binding of autoantibodies in sera from patients with APS to cardiolipin (McNeil H P et al., 1990 Proc. Natl. Acad. Sci. 87, 4120–4124). […] Anti β2GPI antibodies are present in sera of APS patients. […] For cell-ELISA tests, HUVEC cells (at 40,000/well), were plated on 96 well tissue culture plates (Nunc) in 200 μl of the culture medium, and allowed to grow for 18–22 hours. Following 2 washes with Hepes buffer (10 mM Hepes pH 8, 140 mM NaCl) and 5 min incubation with the culture medium, the wells were incubated for 3 hr with 10% of normal plasma in PBS (as a source of β2 GPI protein), supplemented with 1/500 of goat anti-human Apolipoprotein-H (β2 GPI) (Affinity biologicals, PA). Parallel control wells were incubated with 10% of normal plasma from Ilex. Serial dilutions of NST500 compounds were prepared in plasma/PBS. Washes and development were as described for anti CL ELISA.
As presented in FIG. 5B, in the presence of plasma and absence of NST500, HUVEC cells supported binding of anti β2GPI to their surface. However, displacement of anti β2GPI by NST500 compounds in this system occurred in a concentration dependent manner, similar to the results obtained with CL.

[4] = system: HUVEC cells; test: Binding to endothelial HUVEC cells by FACS analysis; format: cell-based, Human; conditions: 250 μM
Experimental: Binding detection was done using flow cytometric analysis to populations of HUVEC cells.
HUVEC (CC-2517, obtained from Clonetics, Walkersville, Md.) were grown on tissue culture flasks in Endothelial cell medium (EGM-2 Bulletkit, CC 3162, Clonetics). Mid-confluent cultures were harvested using Trypsine/EDTA solution (CC-5012, Clonetics). The cells were rinsed twice with TBS containing 2% BSA and kept on ice. Samples of 10^6 cells were tested for binding.
Cells were washed in 1 ml of TBS-BSA and centrifuged as before and then suspended in 100 μl of TBS-BSA containing streptavidin conjugated to fluorescein (FITC) for detection of the bound biotinylated compound. […] Thereafter, 400 μl of TBS-BSA were added and cells were entrifuged and re-suspended in 400 μl of TBS and taken for FACS analysis.

[5] = system: apoptotic HeLa cells; conditions: 250 μM; FACS
Experimental: Detection of binding to apoptotic HeLa cells was performed according to the following procedure: Cells were plated on tissue culture plates at a density of 5×10^6 cells/10 cm dish, and grown in their normal medium at 37° C. for 18 hr. The medium was replaced with a medium containing 2% FCS and 500 μM of dopamine. Eighteen hours later, floating cells that were identified as advanced apoptotic cells were collected and transferred to a 50 ml tube. To evaluate the level of apoptosis in the cultures, aliquots of 10^5 cells from the cultures were plated on 48 wells plate and stained with Hoechst 33342 dye (Molecular Probes) at a concentration of 1 mg/ml for 20 min (as described above). Non-treated cells served as control. For collecting the non-treated cells, the medium of the culture was aspirated and discarded, the cells were rinsed with growing medium and 2 ml of medium were added to the culture dish. The cells were detached from the culture dish using a cell scraper and separated to single cells by passage through a syringe with a 18G needle.
The reactions were incubated at room temperature for 40 minutes and then 400 μl of TBS was added and cells were collected by centrifugation at 3000×g for 3 minutes. Cells were washed in 1 ml of TBS and centrifuged as before and detecting of the bound compound was performed using 100 μl of TBS containing streptavidin conjugated to fluorescein (FITC) (016-090-084 from Jackson ImmunoResearch lab. Inc.). Incubation was for 15 minutes at room temperature in the dark. Thereafter, 400 μl of TBS was added and cells were centrifuged and washed again with 1 ml of TBS as before, re-suspended in 400 μl of TBS and then taken for FACS analysis. The FACS analysis was performed on Beckton-Dickinson cell sorter, using lysis II software. Excitation was at 488 nm and emission for FITC detection was at 535 nm and for PI detection at 585 nm.

[6] = system: HUVEC cells; test: Thrombin generation by HUVEC cells; format: cell-based, Human
Text: In vivo, vascular endothelial cells are known to catalyze the formation of thrombin, due to expression of PS on their plasma membrane, at which pro-coagulant complexes are assembled (Van Hardee W L et al., 1994, Biochem J. 302, 305–312). Endothelial cells (EC) play an active role in determining the pro-coagulant/anti-coagulant balance in the vascular system (Gimborne M A et al., 1995, Ann. N. Y. Acad Sci 748, 122–132). Perturbed endothelial cells dramatically increase their pro-coagulant state. […] (FIG. 4D). When HUVEC cells (1.5×10^5) were incubated with the S-2366 substrate, thrombin generation was evident after a lag time of 12.5 minutes, which reflects the time required to assemble a functional complex on the HUVEC surface.
The effect of NST516 compound on HUVEC mediated-thrombin generation was studied.

[7] = within 5 minutes; rabbits; intravenous injection; cited from earlier work
[8] = system: arterial thrombosis; conditions: intravenous administration; carotid artery injury model; cited from earlier work
[9] = system: apoptotic hepatocytes; format: in vivo, mice; conditions: data not shown
Experimental: Massive hepatic apoptosis can be induced within 1–2 hr in mice following intravenous injection of anti-Fas antibody (Ogasawara J. et al., 1993, Nature, 364, 806–809). […] Five-weeks-old male BALB/c mice were injected intravenously with 10 μg/animal of purified hamster anti-Fas mAb (Jo2, PharMingen, San Diego, Calif.) using the model described by Ogasawara et. al. (Nature, 1993, 364, 806–809). […] Injections were performed at different time intervals between 5 min–2 hr after antibody treatment. […] All animals were killed 2 hr after administration of antibody followed by organ removal. Heart, lung and liver were collected. Liver were sectioned transversely across the mid-portion of each lobe; organs were fixed in phosphate-buffered formalin for histological and immunohisto-chemical analyses.
Formalin fixed paraffin-embedded tissues were sectioned (5 μm) for staining with Hematoxylin/Eosin or other techniques. Endogenous peroxidase activity was blocked by incubation with 3% H2O2.
After washing with PBS, staining was developed with 3,3-diaminobenzidine tetrahydrochloride (DAB), and counterstained with Hematoxylin.
Liver sections from different lobes were used for detection of stained apoptotic cells compared to normal cells. Using light microscopy (×400), twenty fields of stained cells were evaluated. A ratio between the number of stained apoptotic hepatocytes versus stained normal hepatocytes in the field was defined. The stained cell's score (%) corresponds to the mean of the values for the twenty evaluated fields.
The percentage of apoptotic cells in the fields was estimated by evaluating parallel sections stained with Hematoxylin/Eosin. Analysis was performed blindly, since the pathologist performing the histological evaluation was unaware of the assignment of mice to the treatment or control group.
To quantitate the microscopic examination of the pharmacokinetics studies, the number of stained cells from 20 microscopic fields was counted.

| Substance | potency relative to NST513 in inhibiting binding of SLE plasma to CL [1] [times] | displacement of plasma derived from SLE patients from cardiolipin ([1]; 1 μM) | lowering of binding of plasma derived from SLE patients to CL (factor) ([1]; 1 μM) | displacement of plasma derived from SLE patients from cardiolipin ([1]; 10 μM) | inhibition of binding of plasma derived from SLE patients to cardiolipin, dose response ([1]; 1–10 μM) | effect on clotting time of apoptotic cells ([2]; 2.5–2.2 μM) | increase of clotting time of apoptotic cells (factor) ([2]; 2.5–2.2 μM) [times] | clotting time of apoptotic cells ([2]; apoptotic cells alone 50 seconds, control cells 80 seconds) [s] | blocking of binding of anti β2 GPI antibodies to HUVEC cells [3] | inhibiting activity relative to NST513 [3] | fraction of HUVEC cells labeled [4] [%] | higher FITC labeled HUVEC cells as compared to NST513 [4] [%] | increase in labeled HUVEC cells as compared to background of control cells without compound [4] [fold] | binding to apoptotic HeLa cells relative to NST513 [5] [fold] | delay in thrombin generation [6] [min] | potency in inhibiting thrombin generation compared to NST513 [6] | thrombin generation by HUVEC cells, dose response [6] | clearance [7] [%] | inhibition of arterial thrombosis [8] | staining of apoptotic cells, exogenously added [9] |
| --- | --- | --- | --- | --- | --- | --- | --- | --- | --- | --- | --- | --- | --- | --- | --- | --- | --- | --- | --- | --- |
| Myristate-KKVSFFCKNKEKKC-K(SEQ ID NO:2) (biotin) [NST516] | 10 | marked displacement | 2 | almost complete displacement | marked displacement of IgG | marked and dose dependent inhibition of clotting time; also recorded: dose-dependent effect | 4.5 | 225 | dramatic and significant ability to block binding | two times better | 83 | 70 | 8 | 3.5 | 5 | more potent compound in inhibiting thrombin generation | dose dependence inhibition of thrombin generation |  |  |  |
| Annexin V: 320 amino acid protein of the annexin family with Ca2+-dependent binding to anionic phospholipid membranes |  |  |  |  |  |  |  |  |  |  |  |  |  |  |  |  |  | 90 | effectively achieved | same pattern of staining |
